Experimental data as given in patent publication US11535643B2, “Macrolides with modified desosamine sugars and uses thereof” (President and Fellows of Harvard College, priority 2015, dated 2022).
Converted amounts (≈) assume the structure as drawn.

Key:
Format in all cases: cell-based
S. pyogenes = experiment: Broth dilution MIC determination (CLSI) against S. pyogenes strains
Excerpt: (§1) Minimum inhibitory concentrations (MICs) for macrolides described herein have been determined for unique strains of S. aureus, S. pneumoniae, S. pyogenes, E. faecalis, E. coli, A. baumannii, K. pneumoniae, P. aeruginosa, and H. influenzae, including several multidrug-resistant strains, with a special focus on macrolide resistant mechanisms. Azithromycin and solithromycin were included as control compounds. CLSI standard procedures for broth dilution MIC determination were used. Data for exemplary compounds described herein is shown in Tables M1-M7 and in Tables N1-N4.

S. pneumoniae = experiment: Broth dilution MIC determination (CLSI) against S. pneumoniae strains
Excerpt: as §1

A. baumannii = experiment: Broth dilution MIC determination (CLSI) against A. baumannii strains
Procedure, shortened: (§2)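 Following CLSI procedures, broth dilution is used to find the MIC for each strain. Controls: azithromycin and solithromycin.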

P. aeruginosa = experiment: Broth dilution MIC determination (CLSI) against P. aeruginosa strains
Procedure, shortened: as §2

K. pneumoniae = experiment: Broth dilution MIC determination (CLSI) against K. pneumoniae strains
Procedure, shortened: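 Azithromycin and solithromycin served as controls; MICs were obtained by standard CLSI broth dilution on a strain panel including multidrug-resistant and macrolide-resistant isolates.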

E. coli = experiment: Broth dilution MIC determination (CLSI) against E. coli strains
Procedure, shortened: as §2

S. aureus = experiment: Broth dilution MIC determination (CLSI) against S. aureus strains
Procedure, shortened: as §2

E. faecalis = experiment: Broth dilution MIC determination (CLSI) against E. faecalis strains
Excerpt: as §1

C=CCOCC1CC(N(C)C)C(O)C(OC2C(C)C(=O)C(C)C(=O)OC(CC)C3(C)OC(=O)N(CCCCn4cc(-c5cccc(N)c5)nn4)C3C(C)NCC(C)CC2(C)OC)O1 (stereo not drawn) [FSM-120383]
MIC S. pyogenes ATCC19615 (S. pyogenes; ATCC19615, Strain No. MP-19): 0.25 µg/mL (≈ 0.283 µM) | MIC S. pyogenes mac resistant (S. pyogenes; mac resistant, Strain No. MP-625 UNT-014): 1 µg/mL (≈ 1.13 µM) | MIC S. pneumoniae ATCC49619 (S. pneumoniae; ATCC49619, Strain No. MP-21): 0.5 µg/mL (≈ 0.566 µM) | MIC S. pneumoniae mefA (S. pneumoniae; Strain No. MP-626 UNT-038): 0.5 µg/mL (≈ 0.566 µM) | MIC S. pneumoniae mefA (S. pneumoniae; Strain No. MP-627 UNT-039): 0.5 µg/mL (≈ 0.566 µM) | MIC A. baumannii ATCC19606 (A. baumannii; ATCC19606, Strain No. MP-15): 32 µg/mL (≈ 36.2 µM) | MIC A. baumannii clinical (A. baumannii; Strain No. MP576): >64 µg/mL | MIC A. baumannii clinical (A. baumannii; Strain No. MP577): 64 µg/mL (≈ 72.4 µM) | MIC P. aeruginosa ATCC27853 (P. aeruginosa; ATCC27853, Strain No. MP-3): 32 µg/mL (≈ 36.2 µM) | MIC P. aeruginosa PAO1 (P. aeruginosa; PAO1, Strain No. MP-7): 64 µg/mL (≈ 72.4 µM) | MIC P. aeruginosa PAO1:mex (P. aeruginosa; PAO1:mex, Strain No. MP-8): 8 µg/mL (≈ 9.05 µM) | MIC K. pneumoniae ATCC10031 (K. pneumoniae; ATCC10031, Strain No. MP-14): 8 µg/mL (≈ 9.05 µM) | MIC K. pneumoniae clinical (K. pneumoniae; Strain No. MP546): >64 µg/mL | MIC K. pneumoniae clinical (K. pneumoniae; Strain No. MP548): >64 µg/mL | MIC E. coli ATCC25922 (E. coli; ATCC25922, Strain No. MP-4): 32 µg/mL (≈ 36.2 µM) | MIC E. coli ATCC25922:tolC (E. coli; ATCC25922:tolC, Strain No. MP-9): 4 µg/mL (≈ 4.52 µM) | MIC E. coli clinical (E. coli; clinical, Strain No. MP541): 32 µg/mL (≈ 36.2 µM) | MIC E. coli clinical-cErm (E. coli; clinical-cErm, Strain No. MP532): >64 µg/mL | MIC S. aureus ATCC29213 (S. aureus; ATCC29213, Strain No. MP-12): >64 µg/mL | MIC S. aureus ATCCBAA-977 (S. aureus; ATCCBAA-977, Strain No. MP-17): 64 µg/mL (≈ 72.4 µM) | MIC S. aureus (MRSA) GISA USA600 (S. aureus; GISA USA600, Strain No. MP-619 UNT-120): >64 µg/mL | MIC S. aureus (MRSA) ST-228 cErm (S. aureus; ST-228 cErm, Strain No. MP-513): >64 µg/mL | MIC S. aureus (MRSA) USA100 (S. aureus; USA100, Strain No. MP-618 UNT-096): >64 µg/mL | MIC S. aureus (MRSA) USA300 (S. aureus; USA300, Strain No. MP-549): >64 µg/mL | MIC S. aureus (MRSA) ermA phenotype (S. aureus; ermA phenotype, Strain No. MP-620 UNT-146): >64 µg/mL | MIC E. faecalis ATCC29212 (E. faecalis; ATCC29212, Strain No. MP-24): 8 µg/mL (≈ 9.05 µM) | MIC E. faecalis van resistant (E. faecalis; van resistant, Strain No. UNT-039): >64 µg/mL

CCC1OC(=O)C(C)C(=O)C(C)C(OC2OC(C)CC(NCc3cccnc3)C2O)C(C)(OC)CC(C)CNC(C)C2N(CCCCn3cc(-c4cccc(N)c4)nn3)C(=O)OC12C (stereo not drawn) [FSM-120384]
MIC (S. pyogenes; S. pyogenes ATCC19615, strain MP-19 (Table N2)): 1 µg/mL (≈ 1.12 µM) | MIC (S. pyogenes; S. pyogenes mac resistant, strain MP-625 UNT-014 (Table N2)): 4 µg/mL (≈ 4.49 µM) | MIC (S. pneumoniae; S. pneumoniae ATCC49619, strain MP-21 (Table N2)): 2 µg/mL (≈ 2.24 µM) | MIC (S. pneumoniae; S. pneumoniae mefA, strain MP-626 UNT-038 (Table N2)): 0.5 µg/mL (≈ 0.561 µM) | MIC (S. pneumoniae; S. pneumoniae mefA, strain MP-627 UNT-039 (Table N2)): 1 µg/mL (≈ 1.12 µM) | MIC (A. baumannii; A. baumannii ATCC19606, strain MP-15 (Table N2)): 64 µg/mL (≈ 71.8 µM) | MIC (A. baumannii; A. baumannii clinical, strain MP576 (Table N2)): >64 µg/mL | MIC (A. baumannii; A. baumannii clinical, strain MP577 (Table N2)): >64 µg/mL | MIC (P. aeruginosa; P. aeruginosa ATCC27853, strain MP-3 (Table N2)): >64 µg/mL | MIC (P. aeruginosa; P. aeruginosa PAO1, strain MP-7 (Table N2)): >64 µg/mL | MIC (P. aeruginosa; P. aeruginosa PAO1:mex, strain MP-8 (Table N2)): >64 µg/mL | MIC (K. pneumoniae; K pneumomae ATCC10031, strain MP-14 (Table N2)): 16 µg/mL (≈ 18 µM) | MIC (K. pneumoniae; K. pneumoniae clinical, strain MP546 (Table N2)): >64 µg/mL | MIC (K. pneumoniae; K. pneumoniae clinical, strain MP548 (Table N2)): >64 µg/mL | MIC (E. coli; E. coli ATCC25922, strain MP-4 (Table N2)): >64 µg/mL | MIC (E. coli; E. coli ATCC25922:tolC, strain MP-9 (Table N2)): 8 µg/mL (≈ 8.98 µM) | MIC (E. coli; E. coli clinical, strain MP541 (Table N2)): >64 µg/mL | MIC (E. coli; E. coli clinical-cErm, strain MP532 (Table N2)): >64 µg/mL | MIC (S. aureus; S. aureus (MRSA) GISA USA600, strain MP-619 UNT-120 (Table N2)): >64 µg/mL | MIC (S. aureus; S. aureus (MRSA) ST-228 cErm, strain MP-513 (Table N2)): >64 µg/mL | MIC (S. aureus; S. aureus (MRSA) USA100, strain MP-618 UNT-096 (Table N2)): >64 µg/mL | MIC (S. aureus; S. aureus (MRSA) USA300, strain MP-549 (Table N2)): >64 µg/mL | MIC (S. aureus; S. aureus (MRSA) ermA phenotype, strain MP-620 UNT-146 (Table N2)): >64 µg/mL | MIC (S. aureus; S. aureus ATCC29213, strain MP-12 (Table N2)): >64 µg/mL | MIC (S. aureus; S. aureus ATCCBAA-977, strain MP-17 (Table N2)): >64 µg/mL | MIC (E. faecalis; E. faecalis ATCC29212, strain MP-24 (Table N2)): 32 µg/mL (≈ 35.9 µM) | MIC (E. faecalis; E. faecalis van resistant, strain UNT-039 (Table N2)): >64 µg/mL
